Data: US20260184708A1, “PYRIDAZINONES AND METHODS OF USE THEREOF” (GFB (ABC), LLC, priority 2017, published 2026)
Where two headings read alike, the source gives them in different places.

Molecular target: T1, TRPC5 (Homo sapiens, UniProt Q9UL62)
T1 construct: expressed in transfected cells; host or cells: HEK 293
T1 sequence (Q9UL62 1-973): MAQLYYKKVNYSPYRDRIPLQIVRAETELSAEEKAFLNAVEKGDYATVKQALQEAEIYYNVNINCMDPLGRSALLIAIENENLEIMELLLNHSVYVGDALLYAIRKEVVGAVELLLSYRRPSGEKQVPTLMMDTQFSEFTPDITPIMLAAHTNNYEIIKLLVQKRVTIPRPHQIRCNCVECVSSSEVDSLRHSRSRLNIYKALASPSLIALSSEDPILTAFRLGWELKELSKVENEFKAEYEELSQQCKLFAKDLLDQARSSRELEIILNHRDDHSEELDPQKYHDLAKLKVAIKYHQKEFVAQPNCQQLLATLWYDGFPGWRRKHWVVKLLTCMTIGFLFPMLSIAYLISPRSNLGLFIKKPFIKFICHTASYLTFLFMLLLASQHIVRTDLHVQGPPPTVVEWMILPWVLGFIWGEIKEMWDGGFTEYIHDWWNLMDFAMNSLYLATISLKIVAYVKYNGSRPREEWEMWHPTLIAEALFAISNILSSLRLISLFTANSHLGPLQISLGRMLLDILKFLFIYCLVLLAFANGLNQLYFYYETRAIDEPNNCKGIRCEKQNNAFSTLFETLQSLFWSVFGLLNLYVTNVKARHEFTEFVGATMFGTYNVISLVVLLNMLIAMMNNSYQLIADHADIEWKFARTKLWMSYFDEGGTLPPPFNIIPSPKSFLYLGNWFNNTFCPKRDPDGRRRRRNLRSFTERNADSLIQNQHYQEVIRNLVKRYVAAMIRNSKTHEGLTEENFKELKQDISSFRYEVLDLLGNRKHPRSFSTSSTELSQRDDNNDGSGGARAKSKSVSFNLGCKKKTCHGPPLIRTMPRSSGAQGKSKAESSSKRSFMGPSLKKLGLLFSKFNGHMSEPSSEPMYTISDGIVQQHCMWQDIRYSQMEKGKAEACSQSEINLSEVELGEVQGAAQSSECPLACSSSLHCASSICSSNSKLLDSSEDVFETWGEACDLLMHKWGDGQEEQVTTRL
Experiment: TRPC5 automated patch clamp assay (Qpatch), current block after rosiglitazone stimulation
Type: cell-based
Conditions: HEK293 cells overexpressing TRPC5
Procedure, shortened: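 Currents were elicited by 300 ms voltage ramps (−100 to +100 mV, every 10 s, holding −60 mV) in human TRPC5-expressing HEK 293 cells on automated patch clamp, with Rosiglitazone (30 uM) activating the channel. Internal Ca2+ buffered to 1 μM; Hill-equation fitting gave IC50.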

[1] = Table 4, rosiglitazone stimulation, 80 mV, read-out: TRPC5_QP_ XC50_80
[2] = Table 4, rosiglitazone stimulation, 100 mV, read-out: TRPC5_QP_ XC50_100
[3] = Table 5, rosiglitazone stimulation, 80 mV, read-out: TRPC5_QP_ XC50_80
[4] = Table 5, rosiglitazone stimulation, 100 mV, read-out: TRPC5_QP_ XC50_100
[5] = rosiglitazone stimulation, 80 mV, read-out: TRPC5_QP XC50_80
[6] = rosiglitazone stimulation, 100 mV, read-out: TRPC5_QP XC50_100
[7] = Table 3, rosiglitazone stimulation, 80 mV, read-out: TRPC5_QP_ XC50_80
[8] = Table 3, rosiglitazone stimulation, 100 mV, read-out: TRPC5_QP_ XC50_100
[9] = Table 6, read-out: TRPC5-QPatch IC50

`O=C1CN(c2cnnc(Br)c2Cl)CCN1Cc1ccc(F)cc1C(F)(F)F` showed an IC50 [1] of 10 to 500 µM and an IC50 [2] of 10 to 500 µM.

Compound `O=C1CN(c2cn[nH]c(=O)c2Cl)CCN1Cc1ccccc1-c1ccccc1` has an IC50 [1] of 1 to 5 µM and an IC50 [2] of 1 to 5 µM.

Work on `Cc1n[nH]c(=O)c(Cl)c1N1CCN(Cc2ccccc2C(F)(F)F)C(=O)C1` yielded an IC50 [3] of 5 to 10 µM and an IC50 [4] of 5 to 10 µM.

With `CC(C)(C)c1ccc(CN2CCN(c3cn[nH]c(=O)c3Cl)CC2=O)cc1` the IC50 [3] was 10 to 500 µM and the IC50 [4] was 10 to 500 µM.

Compound `Cc1ccccc1CN1CCCN(c2cn[nH]c(=O)c2Br)CC1` has an IC50 [5] of 5 to 10 µM and an IC50 [6] of 5 to 10 µM.

With `CN(C)C(=O)CN1CCN(c2cn[nH]c(=O)c2Cl)CC1` [drawing 708] the IC50 [1] was 10 to 500 µM and the IC50 [2] was 10 to 500 µM.

For `Cc1ccccc1CN1CCN(c2cn[nH]c(=O)c2Oc2ccccc2)CC1=O`, the IC50 [1] was 10 to 500 µM and the IC50 [2] was 10 to 500 µM.

`O=C1CN(c2c(Cl)cn[nH]c2=O)CCN1Cc1ccc(OC(F)(F)F)cc1` gave an IC50 [3] of 10 to 500 µM and an IC50 [4] of 10 to 500 µM.

Compound `Cc1ccccc1CN1CCC2(C1)CN(c1cn[nH]c(=O)c1Br)C2` has an IC50 [7] of 10 to 500 µM and an IC50 [8] of 10 to 500 µM.

Compound `Cc1cc(F)ccc1CN1CCN(c2ccn[nH]c2=O)CC1` has an IC50 [3] of 10 to 500 µM and an IC50 [4] of 10 to 500 µM.

In the case of `Cc1ccccc1CN1CCN(c2cn[nH]c(=O)c2Br)CC1C` (stereo not shown) [drawing 651], the IC50 [8] is reported as 10 to 500 µM.

`Cn1nccc1CN1CCN(c2cn[nH]c(=O)c2Br)CC1` gave an IC50 [7] of 5 to 10 µM and an IC50 [8] of 5 to 10 µM.

`Cc1ccccc1CN1CCN(c2cn[nH]c(=O)c2Cl)CC1=O` [drawing 631] gave an IC50 [5] of 1e-05 to 1 µM and an IC50 [6] of 1e-05 to 1 µM.

`O=C1CN(c2cn[nH]c(=O)c2Cl)CCN1Cc1ccc(C(F)(F)F)cc1` showed an IC50 [1] of 1e-05 to 1 µM and an IC50 [2] of 1e-05 to 1 µM.

With `O=C1CN(c2cn[nH]c(=O)c2C(F)(F)F)CCN1Cc1ccccc1C(F)(F)F` the IC50 [3] was 1 to 5 µM and the IC50 [4] was 1 to 5 µM.

`CCc1cc(F)ccc1Cn1cnc2c1CCN(c1cn[nH]c(=O)c1Cl)C2` [drawing 889] was tested, and the IC50 [9] was 1e-05 to 1 µM.

Compound `O=c1[nH]ncc(N2CCc3c(ncn3Cc3ccccc3C(F)F)C2)c1Cl` [drawing 839] has an IC50 [9] of 5 to 10 µM.

`Cc1ccccc1Cn1cnc2c1CCN(c1cn[nH]c(=O)c1Cl)C2` [drawing 830] gave an IC50 [3] of 1e-05 to 1 µM and an IC50 [4] of 1e-05 to 1 µM.

`Cc1ccccc1CN1CCN(c2c(Cl)cn[nH]c2=O)CC1` gave an IC50 [1] of 5 to 10 µM and an IC50 [2] of 5 to 10 µM.

Work on `O=C1CN(c2cn[nH]c(=O)c2Cl)CCN1Cc1ccc(Cl)cc1` yielded an IC50 [3] of 1 to 5 µM and an IC50 [4] of 5 to 10 µM.

Compound `Cc1n[nH]c(=O)c(N2CCN(Cc3ccc(F)cc3C(F)(F)F)C(=O)C2)c1Cl` has an IC50 [3] of 10 to 500 µM and an IC50 [4] of 10 to 500 µM.

`Cc1cc(F)ccc1CN1CCN(c2cn[nH]c(=O)c2Br)CC1=O` was tested, and the IC50 [7] was 1e-05 to 1 µM and the IC50 [8] was 1 to 5 µM.

With `CCc1cn[nH]c(=O)c1N1CCN(Cc2ccc(F)cc2C)CC1` the IC50 [3] was 1 to 5 µM and the IC50 [4] was 1 to 5 µM.

For `Cc1ccncc1CN1CCN(c2cn[nH]c(=O)c2Cl)CC1`, the IC50 [1] was 5 to 10 µM and the IC50 [2] was 5 to 10 µM.

With `CC[C@@H](c1ccccc1)N1CCN(c2cn[nH]c(=O)c2Cl)CC1` the IC50 [3] was 1 to 5 µM and the IC50 [4] was 1 to 5 µM.

Compound `O=C1N(Cc2ccccc2C(F)(F)F)CCC12CCN(c1cn[nH]c(=O)c1Cl)CC2` has an IC50 [3] of 10 to 500 µM and an IC50 [4] of 10 to 500 µM.
